Measurements reported in patent US11826426B2, “Nanoscale metal-organic layers and metal-organic nanoplates for x-ray induced photodynamic therapy, radiotherapy, radiodynamic therapy, chemotherapy, immunotherapy, and any combination thereof” (priority 2017, dated 2023).

Tests used:
Format in all cases: cell-based, murine
COX-2 = COX-2 assay (cell membrane damage by RDT); details: CT26, 10 μM 4 h; for COX-2 mean fluorescence intensities (flow cytometry): with X-ray irradiation
Description: Thus, the cell membrane damage caused by RDT upon X-ray irradiation was investigated by COX-2 assay (BD Bioscience, Franklin Lakes, New Jersey, United States of America) in CT26 cells. Cells were seeded on cover slides in 6-well plates and cultured for 12 h then incubated with Hf12-DBP, Hf12-DBP-Pt, H2DBP-Pt or PBS at a Hf concentration of 10 μM or ligand with concentration of 10 μM for 4 h followed by X-ray irradiation (250 kVp, 15 mA, mm Cu filter) at 0 and 2 Gy dose. Cells were fixed with 4% paraformaldehyde immediately after X-ray or light irradiation. Biotin-conjugated anti-COX-2 antibody with concentration of 10 μg/mL were incubated with cells at 4° C. overnight then followed by incubation with Cy3-conjugated streptavidin. The nuclei were stained with DAPI. […] The cells were imaged with CLSM and quantified by flow cytometry.
To further study the stronger RDT effect from the Hf12-DBP-Pt treated group, flow cytometry was performed to quantify the difference of COX-2 upregulation of cells treated with Hf12-DBP-Pt, Hf12-DBP, H2DBP-Pt or H2DBP. The mean fluorescence intensities were 7441, 1804, 821, and 225 for the t cells treated with Hf12-DBP-Pt, Hf12-DBP, H2DBP-Pt and H2DBP with X-ray irradiation, respectively.

MC38 cells = test: Annexin V/dead cell apoptosis kit, flow cytometry, MC38; details: 48 h
Description: (§1) The in vitro anticancer efficacy of Hf12-DBP and Hf12-DBP-Pt were further evaluated on CT26 and MC38 cells. Cells were cultured in a 6-well plate overnight and incubated with particles at a Hf concentration of 20 μM for 4 h followed by irradiation with 0 or 2 Gy X-ray (250 kVp, 15 mA, 1 mm Cu filter). 48 h later, the cells were stained according to the AlexaFluor 488 Annexin V/dead cell apoptosis kit (Life Technologies, Carlsbad, California United States of America) and quantified by flow cytometry.
as §1, with “POM, Hf6-QPDC-Ir, Hf12-QPDC-Ir” for “Hf12-DBP”, “POM@Hf12-QPDC-Ir” for “Hf12-DBP-Pt”, “were” for “were further”, “μM or equivalent W concentration” for “μM”, “California,” for “California”, “cytometry. […]” for “cytometry.”

CT26 cells [1] = test: Annexin V/dead cell apoptosis kit, flow cytometry, CT26; details: 48 h
Description: as §1
as §1, with “POM, Hf6-QPDC-Ir, Hf12-QPDC-Ir” for “Hf12-DBP”, “POM@Hf12-QPDC-Ir” for “Hf12-DBP-Pt”, “were” for “were further”, “μM or equivalent W concentration” for “μM”, “California,” for “California”

CT26 cells [2] = test: Intracellular singlet oxygen generation (SOSG, CLSM), Example 1; details: 20 μM based on Ir, Ru or BPY, 8 h, X-ray 2 Gy
Description: ^1O2 generation in live cells was detected by Singlet Oxygen Sensor Green (SOSG, Life Technology, USA). CT26 cells were seeded in a 3.5-cm petri dish and cultured for 12 h. The culture medium was then replaced with fresh medium containing 1 μM SOSG to preload the cells with SOSG. After incubating for 30 min, the cells were washed by PBS three times to remove excess SOSG. The cells were incubated in PBS, with Hf-MOLs or ligands at a ligand concentration of 20 μM for 8 h, then washed with PBS three times to remove excess MOLs or ligands. X-ray irradiation was applied to cells at a dose of 2 Gy (250 kVp, 15 mA, 1-mm Cu filter). Confocal laser scanning microscopy (CLSM; FV1000 Laser Scanning Confocal Microscope, Olympus Corporation, Tokyo, Japan) was used to visualize the ^1O2 generated in the live cells by detecting the green fluorescence inside the cells.
The mechanism of X-ray induced cytotoxicity on CT26 cells was explored. ^1O2 generation in live cells was examined by Singlet Oxygen Sensor Green (SOSG) and detected by confocal laser scanning microscopy (CLSM). After preloading cells with SOSG and incubating them with PBS, Hf-MOLs, or H3BPY ligand for 8 h at a concentration of 20 μM based on Ir, Ru, or BPY, respectively, they were irradiated with X-rays at a dose of 2 Gy, immediately followed by CLSM imaging.

[3] = Table 9, 0 Gy (dark), Hf 20 μM 4 h
[4] = Table 9, 2 Gy X-ray, Hf 20 μM 4 h
[5] = Table 8, 0 Gy (dark), Hf 20 μM 4 h
[6] = Table 8, 2 Gy X-ray, Hf 20 μM 4 h
[7] = Table 11, 0 Gy (dark), Hf 20 μM or equivalent W 4 h
[8] = Table 11, 2 Gy X-ray, Hf 20 μM or equivalent W 4 h
[9] = Table 10, 0 Gy (dark), Hf 20 μM or equivalent W 4 h
[10] = Table 10, 2 Gy X-ray, Hf 20 μM or equivalent W 4 h

Compound: O=C(O)c1ccc(-c2c3nc(cc4ccc([nH]4)c(-c4ccc(C(=O)O)cc4)c4nc(cc5ccc2[nH]5)C=C4)C=C3)cc1 [H2DBP, 5,15-di(p-benzoato)porphyrin]
- COX-2 mean fluorescence intensities (flow cytometry) (COX-2): 225

Compound: O=C(O)c1ccc(-c2c3nc(cc4ccc([n-]4)c(-c4ccc(C(=O)O)cc4)c4nc(cc5ccc2[n-]5)C=C4)C=C3)cc1.[Pt+2] [H2DBP-Pt, platinum-complexed 5, 15-di(p-benzoato)porphyrin]
- Early apoptosis (MC38 cells; [3]): 3.99%
- Healthy cells (MC38 cells; [3]): 93.9%
- Late apoptosis (MC38 cells; [3]): 1.90%
- Necrosis (MC38 cells; [3]): 3.18%
- Early apoptosis (MC38 cells; [4]): 15.9%
- Healthy cells (MC38 cells; [4]): 78.2%
- Late apoptosis (MC38 cells; [4]): 5.31%
- Necrosis (MC38 cells; [4]): 0.55%
- Early apoptosis (CT26 cells [1]; [5]): 0.66%
- Healthy cells (CT26 cells [1]; [5]): 88.2%
- Late apoptosis (CT26 cells [1]; [5]): 4.86%
- Necrosis (CT26 cells [1]; [5]): 6.26%
- Early apoptosis (CT26 cells [1]; [6]): 0.73%
- Healthy cells (CT26 cells [1]; [6]): 69.3%
- Late apoptosis (CT26 cells [1]; [6]): 8.45%
- Necrosis (CT26 cells [1]; [6]): 21.5%
- COX-2 mean fluorescence intensities (flow cytometry) (COX-2): 821
- COX-2 upregulation by CLSM (COX-2; with X-ray irradiation (2 Gy)): No fluorescence signal
- COX-2 upregulation by CLSM (COX-2; without X-ray irradiation): No fluorescence signal

Compound: O=C(O)c1ccc(-c2cc(-c3ccc(C(=O)O)cc3)nc(-c3cc(C(=O)O)ccn3)c2)cc1 [H3BPY, 4′,6′-dibenzoato-[2,2′-bipyridine]-4-carboxylic acid]
- SOSG fluorescence (^1O2 in live cells) (CT26 cells [2]): no SOSG signal

Compound: [P2W18O62]^6− [POM, reference compound]
- Early apoptosis (MC38 cells; [7]): 0.44%
- Healthy cells (MC38 cells; [7]): 97.3%
- Late apoptosis (MC38 cells; [7]): 0.86%
- Necrosis (MC38 cells; [7]): 1.53%
- Early apoptosis (MC38 cells; [8]): 2.35%
- Healthy cells (MC38 cells; [8]): 70.9%
- Late apoptosis (MC38 cells; [8]): 14.0%
- Necrosis (MC38 cells; [8]): 12.7%
- Early apoptosis (CT26 cells [1]; [9]): 0.051%
- Healthy cells (CT26 cells [1]; [9]): 99.7%
- Late apoptosis (CT26 cells [1]; [9]): 0.0057%
- Necrosis (CT26 cells [1]; [9]): 0.21%
- Early apoptosis (CT26 cells [1]; [10]): 5.71%
- Healthy cells (CT26 cells [1]; [10]): 83.1%
- Late apoptosis (CT26 cells [1]; [10]): 8.14%
- Necrosis (CT26 cells [1]; [10]): 3.05%
